Assays:
[1] = test system: Curvularia australiensis; test: Antimicrobial activity against Curvularia australiensis assessed as growth inhibition by microdilution method; type: functional
[2] = test system: Aspergillus niger; test: Antimicrobial activity against Aspergillus niger assessed as growth inhibition by microdilution method; type: functional
[3] = test system: Salmonella typhimurium; test: Antimicrobial activity against Salmonella enterica subsp. enterica serovar Typhimurium assessed as growth inhibition by microdilution method
[4] = test system: Bacillus subtilis; test: Antimicrobial activity against Bacillus subtilis assessed as growth inhibition by microdilution method
[5] = test system: Alternaria alternata; test: Antimicrobial activity against Alternaria alternata assessed as growth inhibition by microdilution method; type: functional
[6] = test system: Aspergillus flavus; test: Antimicrobial activity against Aspergillus flavus assessed as growth inhibition by microdilution method; type: functional
[7] = test system: Streptococcus pyogenes; test: Antimicrobial activity against Streptococcus pyogenes assessed as growth inhibition by microdilution method
[8] = test system: Escherichia coli; test: Antimicrobial activity against Escherichia coli assessed as growth inhibition by microdilution method
[9] = test system: Klebsiella aerogenes; test: Antimicrobial activity against Enterobacter aerogenes assessed as growth inhibition by microdilution method
[10] = test system: Staphylococcus aureus; test: Antimicrobial activity against Staphylococcus aureus assessed as growth inhibition by microdilution method
[11] = test system: Trichoderma reesei; test: Antimicrobial activity against Trichoderma reesei assessed as growth inhibition by microdilution method; type: functional

SMILES	MIC [1] [µg/mL]	MIC [2] [µg/mL]	MIC [3] [µg/mL]	MIC [4] [µg/mL]	MIC [5] [µg/mL]	MIC [6] [µg/mL]	MIC [7] [µg/mL]	MIC [8] [µg/mL]	MIC [9] [µg/mL]	MIC [10] [µg/mL]	MIC [11] [µg/mL]
Cc1cccc2cc3c(nc12)SC(Nc1cccc(F)c1)=NN=C3	1000	1000	500	1000	500	1000	500	1000	1000	500	500
Cc1ccc(NC2=NN=Cc3cc4cccc(C)c4nc3S2)c(C)c1	500	1000	1000	1000	500	500	1000	1000	1000	1000	250
COc1ccc2nc3c(cc2c1)C=NN=C(Nc1cccc(Cl)c1)S3	500	500	500	60	60	500	30	30	250	500	500
Cc1c(Cl)ccc2cc3c(nc12)SC(Nc1ccc(F)cc1)=NN=C3	500	500	1000	125	250	500	60	500	1000	1000	250
COc1ccc2nc3c(cc2c1)C=NN=C(Nc1ccc(C)cc1)S3	500	> 1000	500	250	500	1000	500	500	500	500	1000
CCc1ccc(NC2=NN=Cc3cc4ccc(Cl)c(C)c4nc3S2)cc1	> 1000	1000	1000	125	1000	> 1000	500	1000	1000	1000	1000
Cc1cccc2cc3c(nc12)SC(Nc1ccccc1Cl)=NN=C3	500	> 1000	> 1000	> 1000	1000	1000	> 1000	> 1000	> 1000	> 1000	1000
CCc1ccc(NC2=NN=Cc3cc4cccc(C)c4nc3S2)cc1	500	500	1000	250	500	1000	500	500	1000	500	500
Cc1c(Cl)ccc2cc3c(nc12)SC(Nc1ccccc1Cl)=NN=C3	250	500	500	500	60	500	500	500	500	500	60
Cc1ccc2nc3c(cc2c1)C=NN=C(Nc1ccccc1Cl)S3	1000	> 1000	1000	1000	1000	500	500	500	60	1000	1000
Cc1cccc2cc3c(nc12)SC(NCCN1CCOCC1)=NN=C3	500	500	1000	1000	500	250	1000	1000	1000	1000	250
Cc1ccc2nc3c(cc2c1)C=NN=C(Nc1ccccc1)S3	> 1000	1000	500	1000	1000	500	500	> 1000	500	1000	500
Cc1ccc2nc3c(cc2c1)C=NN=C(Nc1ccccc1F)S3	> 1000	> 1000	1000	1000	1000	> 1000	1000	1000	60	500	1000
Cc1cccc2cc3c(nc12)SC(Nc1ccc(Cl)cc1)=NN=C3	500	1000	1000	1000	500	250	1000	1000	1000	1000	1000
Cc1cccc2cc3c(nc12)SC(Nc1ccccc1)=NN=C3	> 1000	1000	1000	1000	1000	1000	1000	1000	1000	1000	500
Cc1c(Cl)ccc2cc3c(nc12)SC(Nc1cccc(Cl)c1)=NN=C3	1000	500	1000	125	500	500	125	60	1000	500	250
COc1ccc2nc3c(cc2c1)C=NN=C(NCCN1CCOCC1)S3	1000	1000	500	500	1000	500	500	500	1000	500	1000
Cc1ccc(NC2=NN=Cc3cc4cc(C)ccc4nc3S2)c(C)c1	500	1000	500	500	500	500	500	500	500	500	125
CCc1ccc(NC2=NN=Cc3cc4cc(C)ccc4nc3S2)cc1	1000	500	> 1000	1000	500	1000	> 1000	> 1000	> 1000	> 1000	500
Cc1ccccc1NC1=NN=Cc2cc3ccc(Cl)c(C)c3nc2S1	500	500	500	60	250	1000	250	250	250	500	60

Reference: ChEMBL document CHEMBL3046732, “Synthesis and biological evaluation of new [1,3,4]thiadiazepino[7,6-b]quinolin-2-amines as potent anti-microbial agents” (2013)
